Paper PMC4962012, “Pretrichodermamides D–F from a Marine Algicolous Fungus Penicillium sp. KMM 4672” (Marine Drugs, 2016)
pIC50: −log10 of the molar value.

Assays:
CD-I mouse erythrocytes = test: Hemolytic activity; type: cell-based
Experimental: The hemolytic activity was evaluated using CD-I mouse erythrocytes as previously described.

[1] = MTT cytotoxicity assay, 22Rv1 cells; type: cell-based; conditions: human, 22Rv1 prostate cancer cells
Experimental: (§1) The human prostate cancer cells lines 22Rv1, PC-3, and LNCaP were purchased from ATCC. Cell lines were cultured according to the manufacturers instructions in 10% FBS/RPMI media (Invitrogen) with (for LNCaP) or without (for 22Rv1 and PC-3) 1 mM sodium pyruvate (Invitrogen). Cells were continuously kept in culture for a maximum of 3 months and were routinely inspected microscopically for stable phenotype and regularly checked for contamination with mycoplasma. Cell line authentication was performed by DSMZ (Braunschweig, Germany) using highly polymorphic short tandem repeat loci.
(§2) The in vitro cytotoxicity of individual substances was evaluated using the MTT (3-(4,5-dimethylthiazol-2-yl)-2,5-diphenyltetrazolium bromide) assay, which was performed as previously described. Cytotoxicity against CD-I mouse splenocytes was determined according to Freshney. Docetaxel was used as a reference substance.

[2] = tested on: human prostate cancer 22Rv1 cells; test: Apoptosis induction analysis (flow cytometry, PI staining, sub-G1 peak); type: cell-based; conditions: treatment with 1 µM for 48 h
Experimental: as §1
The cell cycle distribution was analyzed by flow cytometry using PI staining as described before with slight modifications. In brief, cells were pre-incubated overnight in 6-well plates (2 × 10^5 cells/well in 2 mL/well). The medium was changed to fresh medium containing different concentrations of the substances. After 48 h of treatment, cells were harvested with a trypsin-EDTA solution, fixed with 70% EtOH, stained, and analyzed by FACS. The results were quantitatively analyzed using Cell Quest Pro software (Version 5.2.1., BD Bioscience, Bedford, MA, USA). Cells appeared at sub-G1 peak were assumed as apoptotic.

[3] = tested on: a number of different cancer cells; parameters: method as in PMID 26039736; conditions: up to 10 µM; cited from earlier work
[4] = MTT cytotoxicity assay, PC-3 cells; type: cell-based; conditions: human, PC-3 prostate cancer cells
Experimental: as §1, §2

[5] = MTT cytotoxicity assay, LNCaP cells; type: cell-based; conditions: human, LNCaP prostate cancer cells
Experimental: as §1, §2

CD-I mouse splenocytes = test: Cytotoxicity against mouse splenocytes; type: cell-based; conditions: non-malignant murine splenocytes
Experimental: as §2

Row | SMILES | hemolytic activity (CD-I mouse erythrocytes; murine erythrocytes, up to 100 µM) | ED50 (erythrocytes) (CD-I mouse erythrocytes; non-malignant murine erythrocytes) [nM] | pIC50 [1] | apoptosis [2] | cytotoxic effect against a number of different cancer cells [3] | pIC50 [4] | pIC50 [5] | ED50 (cytotoxicity for splenocytes) (CD-I mouse splenocytes) [nM]
1 | COc1ccc(C2SSC34CC5(O)C(Cl)C=CC(O)C5ON3C(=O)C2N(C)C4=O)c(O)c1OC (centres unmarked) [compound 5, N-methylpretrichodermamide B] | did not show hemolitic activity | > 100000 | 6.29 | 31.3% ± 8.2 | did not show any cytotoxic effect | 5.29 | 5.75 | 62100
2 | CC(=O)O[C@@]12CO[C@@H]1C[C@H](O)[C@@]1(C)C(=O)[C@H](O)C3=C(C)[C@@H](OC(=O)[C@H](O)[C@@H](NC(=O)OC(C)(C)C)c4ccccc4)C[C@@](O)([C@@H](OC(=O)c4ccccc4)[C@H]21)C3(C)C [docetaxel, reference compound] |  |  | 7.89 |  |  | 7.82 | 8.40 | 
